Holding throughout (assay type): functional
In experiment [1] the test system is Bacillus subtilis. Nature of the experiment: Antibacterial activity against Bacillus subtilis.
The next experiment has as its system Bacillus anthracis. Nature of the experiment: Antibacterial activity against Bacillus anthracis.
Experiment [2] deals with Staphylococcus aureus. Nature of the experiment: Antibacterial activity against Staphylococcus aureus.
Experiment [3] relates to Staphylococcus aureus. Nature of the experiment: Antibacterial activity against methicillin-resistant Staphylococcus aureus.
The next experiment has as its system Enterococcus faecalis. Nature of the experiment: Antibacterial activity against vancomycin-resistant Enterococcus faecalis.
The test system of experiment [4] is Bacillus subtilis. Briefly: Antibacterial activity against Bacillus subtilis assessed as reduction of bacterial viability at 2 times MIC after 30mins.

The values that follow come from ChEMBL document CHEMBL1255550, “Natural product derivatives with bactericidal activity against Gram-positive pathogens including methicillin-resistant Staphylococcus aureus and vancomycin-resistant Enterococcus faecalis” (2010).

Converted amounts (≈) assume the structure as drawn. Some results are limits rather than exact numbers.

The term MIC denotes the smallest concentration in the dilution series that meets the test's criterion for growth inhibition.

Turning to `C[C@H](C[C@H]1CC[C@@H]([C@H](C)Cn2cc(-c3ccccn3)nn2)O1)OC(=O)c1ccccc1`, the MIC in the experiment with Bacillus subtilis [1] turned out to be 20 µg/mL (≈ 47.6 µM); against Bacillus anthracis, 320 µg/mL (≈ 761 µM); in the experiment with Staphylococcus aureus [2], 320 µg/mL (≈ 761 µM); against Staphylococcus aureus [3], 210 µg/mL (≈ 499 µM); in the experiment with Enterococcus faecalis, 26 µg/mL (≈ 61.8 µM).
Regarding `COC(=O)CCC(=O)O[C@H](C)C[C@H]1CC[C@@H]([C@H](C)Cn2cc(-c3cccc(NC(C)=O)c3)nn2)O1`, in the experiment on Bacillus subtilis [4], the log10cfu was over 3. Moreover, the MIC in the experiment with Bacillus subtilis [1] worked out at 91 µg/mL (≈ 187 µM); with Bacillus anthracis, 180 µg/mL (≈ 370 µM); against Staphylococcus aureus [2], 370 µg/mL (≈ 760 µM); against Staphylococcus aureus [3], 122 µg/mL (≈ 251 µM); with Enterococcus faecalis, 61 µg/mL (≈ 125 µM).
Turning to `CC(CC1CCC(C(C)Cn2cc(-c3ccccn3)nn2)O1)OC(=O)c1ccccc1` (racemic), the minimal inhibitory concentration (MIC) amounted to 40 µg/mL (≈ 95.1 µM) in the experiment with Bacillus subtilis [1], 630 µg/mL (≈ 1500 µM) against Bacillus anthracis and 630 µg/mL (≈ 1500 µM) against Staphylococcus aureus [2].
`Br.COC(=O)CCC(=O)OC(C)CC1CCC(C(C)Cn2cc(-c3cccc(NC(C)=O)c3)nn2)O1` (racemic): the MIC against Bacillus subtilis [1] came to 180 µg/mL; with Bacillus anthracis, 370 µg/mL; in the experiment on Staphylococcus aureus [2], 370 µg/mL.
As for `COC(=O)CCC(=O)O[C@@H](C)C[C@@H]1CC[C@H]([C@@H](C)Cn2cc(-c3cccc(NC(C)=O)c3)nn2)O1` (single isomer, unassigned), the minimum inhibitory concentration (MIC) in the experiment with Bacillus subtilis [1], with Bacillus anthracis, in the experiment with Staphylococcus aureus [2] and with Enterococcus faecalis was over 730 µg/mL throughout.
With `C[C@@H](C[C@@H]1CC[C@H]([C@@H](C)Cn2cc(-c3ccccn3)nn2)O1)OC(=O)c1ccccc1` (single isomer, unassigned), the MIC against Bacillus subtilis [1], in the experiment on Bacillus anthracis, in the experiment on Staphylococcus aureus [2] and against Enterococcus faecalis was over 630 µg/mL in each case.
